Experimental data published in article PMC12472494, “Anticonvulsant Potential of 1-Aryl-6,7-dimethoxy-1,2,3,4-tetrahydroisoquinolines: Insights from Strychnine and Nicotine Models in In Vivo and In Silico Studies” (Pharmaceuticals, 2025).

How the values were obtained:
[1] = test system: strychnine-induced seizures; test: Strychnine-induced seizure model; format: in vivo, mice; settings: oral dose 1.0 mg/kg 60 min before strychnine 1.5 mg/kg s.c., N = 10; for responders at 1 mg/kg: Mus musculus, read-out: Survival Rate; for Duration of Tremor and Seizures / Latency to Tremor and Seizure Onset: mean ± SD
From the text: (§1) The anticonvulsant effects of the examined substances were studied in male white mice weighing 18–22 g, divided into the following groups: control (including the strychnine and nicotine groups), carbamazepine group, Convulex group, and experimental groups (one for each tested substance). Simple randomization (“heads or tails” coin toss) was used to assign animals to groups. Each group contained 10 animals. Healthy animals were included in the experiments after a 14-day quarantine period. No animals were excluded from the study. Convulsant agents were administered subcutaneously at doses of 10.0 mg/kg for nicotine (Sigma–Aldrich, Saint Louis, MO, USA) and 1.5 mg/kg for strychnine (Sigma–Aldrich, Saint Louis, MO, USA), 60 min after the oral administration of the test substances at doses ranging from 0.1 to 10 mg/kg. The onset time, duration of tremors and seizures, and survival rate of the animals were recorded. Carbamazepine (Darnitsa, Kiev, Ukraine) at doses of 5.0–10.0 mg/kg and Convulex (valproate) (Gerot Pharmazeutika GmbH, Vienna, Austria) at doses of 75.0–100.0 mg/kg (based on the therapeutic anticonvulsant dose) were used as reference drugs.
(§2) Data were presented as mean ± SD for different groups. Statistical analysis was performed using OriginPro 9.0 (MicroCal Software, Northampton, MA, USA), with p < 0.05 considered statistically significant.

[2] = test system: tremorogenic and convulsive actions of nicotine; test: Nicotine-induced tremor and seizure model; format: in vivo, mice; settings: for responders at 1 mg/kg: Mus musculus, po, read-out: Survival Rate; for survival rate of the animals increased to: at low doses (0.1–5 mg/kg); for activity against tremorogenic and convulsive actions of nicotine versus reference drugs (in words): doses of 0.1–5 mg/kg; for Duration of Seizures / Latency to Seizure Onset: oral dose 1.0 mg/kg 60 min before nicotine 10 mg/kg s.c., mean ± SD, N = 10
From the text: as §1, §2

[3] = design: method as in PMID 36677539; settings: per os; cited from earlier work

## COc1cc2c(cc1OC)C(c1ccc3c(c1)OCO3)NCC2 (centres unmarked) [Compound 29, 1-(3′,4′-Methylenedioxyphenyl)-6,7-dimethoxy-1,2,3,4-tetrahydroisoquinoline]
[1]
  responders at 1 mg/kg: 50%
  Duration of Tremor and Seizures: 0.32 ± 0.9 min
  Latency to Tremor and Seizure Onset: 12.5 ± 1.8 min
[2]
  responders at 1 mg/kg: 90%
  survival rate of the animals increased to: 90–100%
  activity against tremorogenic and convulsive actions of nicotine versus reference drugs (in words): comparable activity to the reference drugs
  Duration of Seizures: 3.7 ± 0.9 min
  Latency to Seizure Onset: 2.5 ± 0.07 min
[3]
  LD50: 267.2 (226.3 ± 301.1) mg/kg

## COc1cc2c(cc1OC)C(c1cc3c(cc1Br)OCO3)NCC2 (centres unmarked) [Compound 30, 1-(2′-Bromo-4′,5′-methylenedioxyphenyl)-6,7-dimethoxy-1,2,3,4-tetrahydroisoquinoline]
[1]
  responders at 1 mg/kg: 30%
  Duration of Tremor and Seizures: 0.41 ± 0.4 min
  Latency to Tremor and Seizure Onset: 11.2 ± 1.2 min
[2]
  responders at 1 mg/kg: 90%
  survival rate of the animals increased to: 90–100%
  activity against tremorogenic and convulsive actions of nicotine versus reference drugs (in words): comparable activity to the reference drugs
  Duration of Seizures: 7.0 ± 0.2 min
  Latency to Seizure Onset: 2.5 ± 0.09 min
[3]
  LD50: 711.7 (604.3 ± 792.9) mg/kg

## COc1cc2c(cc1OC)C(c1cc3c(cc1Cl)OCO3)NCC2 (centres unmarked) [Compound 31, 1-(4′,5′-Methylenedioxy-2′-chlorophenyl)-6,7-dimethoxy-1,2,3,4-tetrahydroisoquinoline]
[1]
  responders at 1 mg/kg: 30%
  Duration of Tremor and Seizures: 0.59 ± 0.5 min
  Latency to Tremor and Seizure Onset: 13.6 ± 1.9 min
[2]
  responders at 1 mg/kg: 90%
  survival rate of the animals increased to: 90–100%
  activity against tremorogenic and convulsive actions of nicotine versus reference drugs (in words): comparable activity to the reference drugs
  Duration of Seizures: 10.7 ± 0.9 min
  Latency to Seizure Onset: 2.3 ± 0.08 min
[3]
  LD50: 520.8 (491.9 ± 545.4) mg/kg

## COc1cc2c(cc1OC)C(c1ccccc1N)NCC2 (centres unmarked) [Compound 32, 1-(2′-Aminophenyl)-6,7-dimethoxy-1,2,3,4-tetrahydroisoquinoline]
[1]
  responders at 1 mg/kg: 50%
  Duration of Tremor and Seizures: 0.34 ± 0.4 min
  Latency to Tremor and Seizure Onset: 18.2 ± 1.7 min
[2]
  responders at 1 mg/kg: 60%
  Duration of Seizures: 12.2 ± 0.8 min
  Latency to Seizure Onset: 1.8 ± 0.06 min
[3]
  LD50: 366.3 (326.3 ± 395.6) mg/kg

## COc1cc2c(cc1OC)C(c1cccc(N)c1)NCC2 (centres unmarked) [Compound 33, 1-(3′-Aminophenyl)-6,7-dimethoxy-1,2,3,4-tetrahydroisoquinoline]
[1]
  responders at 1 mg/kg: 50%
  Duration of Tremor and Seizures: 0.42 ± 0.8 min
  Latency to Tremor and Seizure Onset: 16.7 ± 1.0 min
[2]
  responders at 1 mg/kg: 80%
  Duration of Seizures: 17.0 ± 0.6 min
  Latency to Seizure Onset: 2.2 ± 0.04 min
[3]
  LD50: 732.0 (598.2 ± 885.4) mg/kg

## COc1cc2c(cc1OC)C(c1ccc(N)cc1)NCC2 (centres unmarked) [Compound 34, 1-(4′-Aminophenyl)-6,7-dimethoxy-1,2,3,4-tetrahydroisoquinoline]
[1]
  responders at 1 mg/kg: 40%
  Duration of Tremor and Seizures: 0.34 ± 0.7 min
  Latency to Tremor and Seizure Onset: 15.5 ± 1.8 min
[2]
  responders at 1 mg/kg: 90%
  survival rate of the animals increased to: 90–100%
  activity against tremorogenic and convulsive actions of nicotine versus reference drugs (in words): comparable activity to the reference drugs
  Duration of Seizures: 10.2 ± 0.7 min
  Latency to Seizure Onset: 2.2 ± 0.04 min
[3]
  LD50: 1043.2 (993.3 ± 1082.6) mg/kg
